Legend:
[1] = Stability of vancomycin in non-extracted human plasma samples; format: in vitro ADME; settings: for Mean back calculated Vancomycin Concentrations / % Error: non-extracted human plasma; for Mean back calculated Vancomycin Concentrations: HPLC-UV, mean of n = 5; for % Error: n = 5; for time of stability: plasma samples (non-extracted)
Procedure: (§1) The chromatographic separation was performed using HPLC-UV (Shimadzu, Kyoto, Japan), which consisted of solvent delivery pumps (LC-20 AT), an SIL-20A autosampler, and a UV-VIS detector (SPD-10A VP). The HPLC chromatographic separation was performed using a reverse-phase Supleco Discovery® C18 column (5 μm, 250 × 4.6 mm) (Supleco Inc., Mississauga, ON, Canada) with a Discovery® C18 Supelguard™ guard column (5 μm, 20 × 4 mm) (Supleco Inc., Mississauga, ON, Canada). LabSolutions Lite® software version 5.93 (Shimadzu, Kyoto, Japan) was used for the acquisition of data and analysis integration. The mobile phase comprised phosphate buffer and ACN (90:10, v/v). A phosphate buffer with a pH of 2.8 was prepared by combining 175 mL of 0.1 M phosphoric acid with 825 mL of 0.1 M monobasic sodium monophosphate. […] The final concentration of the phosphate buffer was 0.1 M. Separation was carried out using isocratic elution. The flow rate was set to 1 mL/min. The total run time for sample elution was set to 10 min. The detector was set to a wavelength of 192 nm, with the column and autosampler operated at ambient temperature.
(§2) The mixture was vortexed for 40 s and centrifuged at 12,000 rpm for 10 min using an Eppendorf 5424 Microcentrifuge (Eppendorf, Hamburg, Germany). The resultant supernatant was then transferred to a separate HPLC vial with glass inserts. Aliquots of 30 μL was then injected into the HPLC system for analysis. The sample preparation was performed at room temperature and directly injected into the HPLC system.
(§3) The conditions for stability assessment were designed to simulate the conditions encountered during sample storage, handling, and analysis. […] Additionally, we conducted an assessment of freeze–thaw stability involving three cycles, each comprising a 24 h freezing period followed by room temperature thawing, with the cycle being repeated. Acceptability criteria included a stability ratio to reference samples falling within the range of 85% to 115% and a percentage error within 15%.

[2] = Freeze and thaw stability of vancomycin in human plasma; format: in vitro ADME; settings: nominal 10 mg/L
Procedure: as §1
The mixture was vortexed for 40 s and centrifuged at 12,000 rpm for 10 min using an Eppendorf 5424 Microcentrifuge (Eppendorf, Hamburg, Germany). The resultant supernatant was then transferred to a separate HPLC vial with glass inserts. […]

[3] = Stability of vancomycin in extracted human plasma samples; format: physicochemical; settings: for Mean back calculated Vancomycin Concentrations: extracted human plasma, HPLC-UV, mean of n = 5
Procedure: as §1, §2, §3

[4] = cited from earlier work
From the text: It is also the preferred agent for managing Gram-positive bacterial infections in patients allergic to beta-lactam antimicrobials.

[5] = -20 °C, 2 weeks, nominal 10 mg/L
[6] = -80 °C, 2 weeks, nominal 10 mg/L
[7] = -80 °C, 24 hours, nominal 10 mg/L
[8] = -80 °C, 24 hours, nominal 70 mg/L
[9] = fridge temperature, 2 weeks, nominal 10 mg/L
[10] = fridge temperature, 3 hours, nominal 10 mg/L
[11] = fridge temperature, 3 hours, nominal 70 mg/L
[12] = fridge temperature, 24 hours, nominal 10 mg/L
[13] = room temperature, 24 hours, nominal 10 mg/L

CN[C@H](CC(C)C)C(=O)N[C@H]1C(=O)N[C@@H](CC(N)=O)C(=O)N[C@H]2C(=O)N[C@H]3C(=O)N[C@H](C(=O)N[C@H](C(=O)O)c4cc(O)cc(O)c4-c4cc3ccc4O)[C@H](O)c3ccc(c(Cl)c3)Oc3cc2cc(c3O[C@@H]2O[C@H](CO)[C@@H](O)[C@H](O)[C@H]2O[C@H]2C[C@](C)(N)[C@H](O)[C@H](C)O2)Oc2ccc(cc2Cl)[C@H]1O [Vancomycin]
Mean back calculated Vancomycin Concentrations [1, 5]: 8.179 mg/L | % Error [1, 5]: 18.210% | % Error ([1]; -20 °C, 2 weeks, nominal 70 mg/L): 12.943% | Mean back calculated Vancomycin Concentrations [1, 6]: 8.809 mg/L | % Error [1, 6]: 11.910% | Mean back calculated Vancomycin Concentrations ([1]; -80 °C, 2 weeks, nominal 70 mg/L): 69.056 mg/L | Mean back calculated Vancomycin Concentrations [1, 7]: 9.282 mg/L | Mean back calculated Vancomycin Concentrations [1, 8]: 67.964 mg/L | % Error [1, 8]: 2.909% | Mean back calculated Vancomycin Concentrations [1, 9]: 8.404 mg/L | % Error [1, 9]: 15.960% | % Error ([1]; fridge temperature, 2 weeks, nominal 70 mg/L): 1.271% | Mean back calculated Vancomycin Concentrations [1, 10]: 9.276 mg/L | % Error [1, 10]: 7.240% | Mean back calculated Vancomycin Concentrations [1, 11]: 75.272 mg/L | % Error [1, 11]: 7.531% | Mean back calculated Vancomycin Concentrations [1, 12]: 8.860 mg/L | % Error [1, 12]: 11.400% | % Error ([1]; fridge temperature, 24 hours, nominal 70 mg/L): 0.770% | Mean back calculated Vancomycin Concentrations ([1]; room temperature, 3 hours, nominal 70 mg/L): 70.355 mg/L | Mean back calculated Vancomycin Concentrations [1, 13]: 9.543 mg/L | time of stability ([1]; -80 °C): 2 weeks | time of stability ([1]; room temperature): 24 h | Mean back calculated Vancomycin Concentrations ([2]; three freeze-thaw cycles (24 h freezing, room temperature thawing), HPLC-UV, mean of n = 5): 9.289 mg/L | % Error ([2]; three freeze-thaw cycles, n = 5): 7.110% | period with satisfactory precision and accuracy ([3]; extracted human plasma samples, -80 °C storage): 2 week | degradation on storage at room temperature ([3]; extracted human plasma samples, storage for 24 h, 1 week and 2 weeks): substantial degradation | period with satisfactory precision and accuracy ([3]; extracted human plasma samples, under refrigeration): 2 week | Mean back calculated Vancomycin Concentrations [3, 6]: 8.980 mg/L | Mean back calculated Vancomycin Concentrations [3, 7]: 9.888 mg/L | Mean back calculated Vancomycin Concentrations ([3]; fridge temperature (4 °C), 2 weeks, nominal 10 mg/L): 8.307 mg/L | Mean back calculated Vancomycin Concentrations ([3]; fridge temperature (4 °C), 3 hours, nominal 10 mg/L): 8.720 mg/L | Mean back calculated Vancomycin Concentrations ([3]; fridge temperature (4 °C), 24 hours, nominal 10 mg/L): 9.740 mg/L | Mean back calculated Vancomycin Concentrations ([3]; fridge temperature (4 °C), 24 hours, nominal 70 mg/L): 76.528 mg/L | Mean back calculated Vancomycin Concentrations ([3]; room temperature, 1 week, nominal 10 mg/L): 2.491 mg/L | Mean back calculated Vancomycin Concentrations ([3]; room temperature, 2 weeks, nominal 10 mg/L): 0.722 mg/L | Mean back calculated Vancomycin Concentrations ([3]; room temperature, 2 weeks, nominal 70 mg/L): 3.647 mg/L | Mean back calculated Vancomycin Concentrations ([3]; room temperature, 3 hours, nominal 10 mg/L): 9.283 mg/L | Mean back calculated Vancomycin Concentrations [3, 13]: 6.792 mg/L | oral bioavailability [4]: negligible

Source: paper PMC11901705 (Molecules, 2025)
